From US9676754B2, “Triazolone compounds and uses thereof” (Inception 2, Inc., priority 2012, dated 2017) come the findings set out here.

The target in the assay is T1, Human PPARα (Homo sapiens, UniProt Q07869).
T1 construct: host or cells: proprietary non-human mammalian cells
T1 sequence (Q07869 1-468): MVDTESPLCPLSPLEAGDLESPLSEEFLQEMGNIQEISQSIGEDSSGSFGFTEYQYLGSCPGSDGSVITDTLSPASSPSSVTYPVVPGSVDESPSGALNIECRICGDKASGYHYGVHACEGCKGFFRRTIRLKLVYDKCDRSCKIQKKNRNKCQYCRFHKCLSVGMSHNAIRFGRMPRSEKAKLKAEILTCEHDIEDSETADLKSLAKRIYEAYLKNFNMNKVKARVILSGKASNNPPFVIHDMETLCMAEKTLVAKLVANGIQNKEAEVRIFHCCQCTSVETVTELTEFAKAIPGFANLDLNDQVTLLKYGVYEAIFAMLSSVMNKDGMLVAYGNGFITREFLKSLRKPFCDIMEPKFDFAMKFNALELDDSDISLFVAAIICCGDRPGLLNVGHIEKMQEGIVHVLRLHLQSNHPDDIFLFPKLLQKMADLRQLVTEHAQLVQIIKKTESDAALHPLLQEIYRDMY
Briefly: Human PPARα Reporter Assay (luciferase). To be noted: antagonist activity, luciferase reporter cells, overnight incubation; read-out: Human PPARα Reporter Assay-Luciferase IC50. The class given is cell-based. The protocol: Human PPARα Reporter Assay
The screening of test compounds for agonist or antagonist activities against human PPARα receptors was performed using a commercial kit, Human PPARα Reporter Assay System (Indigo Biosciences, Cat. #IB00111).
This nuclear receptor assay system utilizes proprietary non-human mammalian cells engineered to provide constitutive, high-level expression of Human PPARα. Because these cells incorporate a PPARα-responsive luciferase reporter gene, quantifying expressed luciferase activity provides a sensitive surrogate measure of PPARα activity in the treated cells. The primary application of this reporter assay system is in the screening of test samples to quantify any functional activity, either agonist or antagonist, that they may exert against human PPARα. […] Briefly, the reporter cells are dispensed into wells of the assay plate and then immediately dosed with test compounds. Following an overnight incubation, the treatment media are discarded and Luciferase Detection Reagent (LDR) is added. The intensity of light emission from the ensuing luciferase reaction provides a sensitive measure that is directly proportional to the relative level of PPARα activation in the reporter cells.
Background: In a reporter assay the amount or activity of a reporter protein is the signal.
What is called IC50 is the midpoint of a concentration-inhibition curve. For the compound `CCn1c(CCCc2cccc(-c3cccc(CC(=O)O)c3)c2)nn(Cc2ccc(C(C)(C)C)cc2)c1=O` [Example 1, 2-(3′-(3-(1-(4-(tert-Butyl)benzyl)-4-ethyl-5-oxo-4,5-dihydro-1H-1,2,4-triazol-3-yl)propyl)-[1,1′-biphenyl]-3-yl)acetic acid], the IC50 is 346 nM. As to `CCn1c(CCCc2cccc(-c3ccc(CC(=O)O)cc3)c2)nn(Cc2ccc(C(C)(C)C)cc2)c1=O` [Example 2, 2-(3′-(3-(1-(4-(tert-Butyl)benzyl)-4-ethyl-5-oxo-4,5-dihydro-1H-1,2,4-triazol-3-yl)propyl)-[1,1′-biphenyl]-4-yl)acetic acid], the IC50 is 324 nM.

Regarding `CCn1c(CCCc2cccc(-c3cccc(C(=O)O)c3)c2)nn(Cc2ccc(C(C)(C)C)cc2)c1=O` [Example 3, 3′-(3-(1-(4-(tert-Butyl)benzyl)-4-ethyl-5-oxo-4,5-dihydro-1H-1,2,4-triazol-3-yl)propyl)-[1,1′-biphenyl]-3-carboxylic acid], the IC50 came to 1330 nM. Under `CCn1c(CCCc2cccc(-c3ccc(C(=O)O)cc3)c2)nn(Cc2ccc(C(C)(C)C)cc2)c1=O` [Example 4, 3′-(3-(1-(4-(tert-Butyl)benzyl)-4-ethyl-5-oxo-4,5-dihydro-1H-1,2,4-triazol-3-yl)propyl)-[1,1′-biphenyl]-4-carboxylic acid] stands 110 nM; under `CCOc1ccc(-c2cccc(CCCc3nn(Cc4ccc(C(C)(C)C)cc4)c(=O)n3CC)c2)cc1C1(C(=O)O)CC1` [Example 5, 1-(3′-(3-(1-(4-(tert-Butyl)benzyl)-4-ethyl-5-oxo-4,5-dihydro-1H-1,2,4-triazol-3-yl)propyl)-4-ethoxy-[1,1′-biphenyl]-3-yl)cyclopropanecarboxylic acid], 137 nM. For the compound `CCn1c(CCCc2cccc(-c3cccc(C4(C(=O)O)CC4)c3)c2)nn(Cc2ccc(C(C)(C)C)cc2)c1=O` [Example 7, 1-(3′-(3-(1-(4-(tert-Butyl)benzyl)-4-ethyl-5-oxo-4,5-dihydro-1H-1,2,4-triazol-3-yl)propyl)-[1,1′-biphenyl]-3-yl)cyclopropanecarboxylic acid], the IC50 amounted to 77 nM.

On to `CCn1c(CCCc2cccc(-c3ccc(C4(C(=O)O)CC4)cc3)c2)nn(Cc2ccc(C(C)(C)C)cc2)c1=O` [Example 8, 1-(3′-(3-(1-(4-(tert-Butyl)benzyl)-4-ethyl-5-oxo-4,5-dihydro-1H-1,2,4-triazol-3-yl)propyl)-[1,1′-biphenyl]-4-yl)cyclopropanecarboxylic acid], for which the IC50 was determined as 487 nM. Take `CCn1c(CCCc2cccc(-c3ccc(OC)c(C(=O)O)c3)c2)nn(Cc2ccc(C(C)(C)C)cc2)c1=O` [Example 9, 3′-(3-(1-(4-(tert-Butyl)benzyl)-4-ethyl-5-oxo-4,5-dihydro-1H-1,2,4-triazol-3-yl)propyl)-4-methoxy-[1,1′-biphenyl]-3-carboxylic acid]: the IC50 was found to be 548 nM. Take `CCOc1ccc(-c2cccc(CCCc3nn(Cc4ccc(C(C)(C)C)cc4)c(=O)n3CC)c2)cc1C(=O)O` [Example 10, 3′-(3-(1-(4-(tert-Butyl)benzyl)-4-ethyl-5-oxo-4,5-dihydro-1H-1,2,4-triazol-3-yl)propyl)-4-ethoxy-[1,1′-biphenyl]-3-carboxylic acid]: the IC50 worked out at 211 nM. Regarding `CCCOc1ccc(-c2cccc(CCCc3nn(Cc4ccc(C(C)(C)C)cc4)c(=O)n3CC)c2)cc1CC(=O)O` [Example 11, 2-(3′-(3-(1-(4-(tert-Butyl)benzyl)-4-ethyl-5-oxo-4,5-dihydro-1H-1,2,4-triazol-3-yl)propyl)-4-propoxy-[1,1′-biphenyl]-3-yl)acetic acid], the half-inhibitory concentration (IC50) was determined as 48 nM. The result for `CCn1c(CCCc2cccc(-c3ccc(NS(=O)(=O)c4ccccc4)cn3)c2)nn(Cc2ccc(C(C)(C)C)cc2)c1=O` [Example 12, N-(6-(3-(3-(1-(4-(tert-Butyl)benzyl)-4-ethyl-5-oxo-4,5-dihydro-1H-1,2,4-triazol-3-yl)propyl)phenyl)pyridin-3-yl)benzenesulfonamide] reads 302 nM; that for `CCn1c(CCCc2cccc(-c3ccc(OC)c(CC(=O)O)c3)c2)nn(Cc2ccc(C(C)(C)C)cc2)c1=O` [Example 13, 2-(3′-(3-(1-(4-(tert-Butyl)benzyl)-4-ethyl-5-oxo-4,5-dihydro-1H-1,2,4-triazol-3-yl)propyl)-4-methoxy-[1,1′-biphenyl]-3-yl)acetic acid], 197 nM. Turning to `CCn1c(CCCc2cccc(-c3ccc(C)c(C4(C(=O)O)CC4)c3)c2)nn(Cc2ccc(C(C)(C)C)cc2)c1=O` [Example 14, 1-(3′-(3-(1-(4-(tert-Butyl)benzyl)-4-ethyl-5-oxo-4,5-dihydro-1H-1,2,4-triazol-3-yl)propyl)-4-methyl-[1,1′-biphenyl]-3-yl)cyclopropanecarboxylic acid], the IC50 was 234 nM. With `CCn1c(CCCc2cccc(-c3ccc(OCc4ccccc4)c(CC(=O)O)c3)c2)nn(Cc2ccc(C(C)(C)C)cc2)c1=O` [Example 15, 2-(4-(Benzyloxy)-3′-(3-(1-(4-(tert-butyl)benzyl)-4-ethyl-5-oxo-4,5-dihydro-1H-1,2,4-triazol-3-yl)propyl)-[1,1′-biphenyl]-3-yl)acetic acid], the IC50 amounted to 122 nM. Under `CCn1c(CCCc2cccc(-c3ccc(OCC4CC4)c(CC(=O)O)c3)c2)nn(Cc2ccc(C(C)(C)C)cc2)c1=O` [Example 16, 2-(3′-(3-(1-(4-(tert-Butyl)benzyl)-4-ethyl-5-oxo-4,5-dihydro-1H-1,2,4-triazol-3-yl)propyl)-4-(cyclopropylmethoxy)-[1,1′-biphenyl]-3-yl)acetic acid] stands 141 nM. Regarding `CCn1c(CCCc2cccc(-c3ccc(F)c(CC(=O)O)c3)c2)nn(Cc2ccc(C(C)(C)C)cc2)c1=O` [Example 17, 2-(3′-(3-(1-(4-(tert-Butyl)benzyl)-4-ethyl-5-oxo-4,5-dihydro-1H-1,2,4-triazol-3-yl)propyl)-4-fluoro-[1,1′-biphenyl]-3-yl)acetic acid], the IC50 was determined as 83 nM.

Consider `CCOc1ccc(CC(=O)O)cc1-c1cccc(CCCc2nn(Cc3ccc(C(C)(C)C)cc3)c(=O)n2CC)c1` [Example 18, 2-(3′-(3-(1-(4-(tert-Butyl)benzyl)-4-ethyl-5-oxo-4,5-dihydro-1H-1,2,4-triazol-3-yl)propyl)-6-ethoxy-[1,1′-biphenyl]-3-yl)acetic acid], for which the half-inhibitory concentration (IC50) is 750 nM.

On to `CCCOc1ccc(-c2cccc(CCCc3nn(Cc4ccc(C(C)(C)C)cc4)c(=O)n3CC)c2)cc1C(=O)O` [Example 19, 3′-(3-(1-(4-(tert-Butyl)benzyl)-4-ethyl-5-oxo-4,5-dihydro-1H-1,2,4-triazol-3-yl)propyl)-4-propoxy-[1,1′-biphenyl]-3-carboxylic acid], for which the IC50 is 119 nM.

As to `CCn1c(CCCc2cccc(-c3cccc(CNS(=O)(=O)c4ccccc4)c3)c2)nn(Cc2ccc(C(C)(C)C)cc2)c1=O` [Example 20, N-((3′-(3-(1-(4-(tert-Butyl)benzyl)-4-ethyl-5-oxo-4,5-dihydro-1H-1,2,4-triazol-3-yl)propyl)-[1,1′-biphenyl]-3-yl)methyl)benzenesulfonamide], the IC50 turned out to be 896 nM.

In the case of `CCn1c(CCCc2cccc(-c3ccc(OC)c(CCC(=O)O)c3)c2)nn(Cc2ccc(C(C)(C)C)cc2)c1=O` [Example 21, 3-(3′-(3-(1-(4-(tert-Butyl)benzyl)-4-ethyl-5-oxo-4,5-dihydro-1H-1,2,4-triazol-3-yl)propyl)-4-methoxy-[1,1′-biphenyl]-3-yl)propanoic acid], the IC50 amounted to 610 nM.

Consider `CCOc1ccc(-c2cccc(C(F)(F)CCc3nn(Cc4ccc(C(C)(C)C)cc4)c(=O)n3CC)c2)cc1CC(=O)O` [Example 22, 2-(3′-(3-(1-(4-(tert-Butyl)benzyl)-4-ethyl-5-oxo-4,5-dihydro-1H-1,2,4-triazol-3-yl)-1,1-difluoropropyl)-4-ethoxy-[1,1′-biphenyl]-3-yl)acetic acid], for which the half-maximal inhibitory concentration (IC50) stood at 64 nM. Take `CCn1c(CCC(F)(F)c2cccc(-c3ccc(NS(=O)(=O)c4ccccc4)cn3)c2)nn(Cc2ccc(C(C)(C)C)cc2)c1=O` [Example 23, N-(6-(3-(3-(1-(4-(tert-Butyl)benzyl)-4-ethyl-5-oxo-4,5-dihydro-1H-1,2,4-triazol-3-yl)-1,1-difluoropropyl)phenyl)pyridin-3-yl)benzenesulfonamide]: the IC50 turned out to be 659 nM. For the compound `CCn1c(CCCc2cccc(-c3ccc(OC)c(CC(=O)O)c3)n2)nn(Cc2ccc(C(C)(C)C)cc2)c1=O` [Example 24, 2-(5-(6-(3-(1-(4-(tert-Butyl)benzyl)-4-ethyl-5-oxo-4,5-dihydro-1H-1,2,4-triazol-3-yl)propyl)pyridin-2-yl)-2-methoxyphenyl)acetic acid], the IC50 came out at 2530 nM.

Regarding `CCn1c(CCCc2cccc(-c3cccc(-c4nnn[nH]4)c3)c2)nn(Cc2ccc(C(C)(C)C)cc2)c1=O` [Example 25, 3-(3-(3′-(1H-Tetrazol-5-yl)-[1,1′-biphenyl]-3-yl)propyl)-1-(4-(tert-butyl)benzyl)-4-ethyl-1H-1,2,4-triazol-5(4H)-one], the IC50 turned out to be 2290 nM.
